Measured values from patent US9273052B2, “Phthalazinone ketone derivative, preparation method thereof, and pharmaceutical use thereof” (Jiangsu Hansoh Pharmaceutical Co., Ltd., priority 2010, dated 2016).
Read-outs that look alike come from different tables or passages of the source.

Legend:
MDA-MB-436 cells = assay: Cell proliferation inhibition assay (CCK8); assay type: cell-based; conditions: Homo sapiens, 72 hours
[1] = Pharmacokinetics assay in SD rats (LC/MS/MS plasma concentration); assay type: in vivo; conditions: 15 mg/kg; for AUC / half-life / MRT / Cmax / bioavailability: both sexes, rat, plasma; for AUC: read-out: Area Under Curve AUC; for half-life: read-out: Half-Life t1/2 (converted); for MRT: read-out: Mean Residence Time MRT; for Cmax: read-out: Plasma Conc. Cmax; for bioavailability: po
Experimental: The pharmacokinetic behavior of the compounds of the present invention was studied and evaluated in rats.
24 Healthy adult SD rats, male and female in half, were purchased from SINO-BRITSH SIPPR/BK LAB. ANIMAL LTD., CO, Certificate No.: SCXK (Shanghai) 2003-0002.
The intragastrical administration group: the right amount of tested compounds were weighed and dissolved in 0.5 mL of DMSO, diluted with physiological saline to 10 mL and prepared to 1.5 mg/mL.
The intravenous injection administration group: the right amount of tested compounds were weighed and added into […].
After an overnight fast, 24 healthy adult SD rats, male and female in half, were administered intragastrically at a dose of 15.0 mg/kg and an administration volume of 10 mL/kg.
(§1) The intragastrical administration group: blood samples (0.2 mL) were taken from orbital sinus at pre administration and at 0.25 hour, 0.5 hour, 1.0 hour, 1.5 hours, 2.0 hours, 3.0 hours, 4.0 hours, 6.0 hours, 7.0 hours, 9.0 hours, 12.0 hours and 24.0 hours post administration, stored in heparinized tubes and centrifuged for 20 minutes at 3,500 rpm to separate plasma. The plasma samples were stored at −20° C. The rats were fed at 2 hours after administration.
as §1, with “intravenous injection” for “intragastrical”, “2 minutes, 15 minutes,” for “0.25 hour,”, “hour,” for “hour, 1.5 hours,”, “8.0” for “7.0 hours, 9.0”, “C.” for “C. The rats were fed at 2 hours after administration.”
20 μL of rat blank plasmas taken at various time points after administration were added with 50 μL of internal standard solution and 140 μL of methanol and mixed for 3 minutes by a vortexer. The mixture was centrifuged for 10 minutes at 13,500 rpm. 20 μL of the supernatant was analyzed by LC-MS/MS. The main pharmacokinetic parameters were calculated by software DAS 2.0.

[2] = test system: human colon carcinoma SW620; assay: Antitumor effect with temozolomide on SW620 transplanted tumors in nude mice; assay type: in vivo; conditions: colon carcinoma SW620 in BALB/cA-nude mice; 1 mg/kg oral gavage + TMZ 50 mg/kg oral gavage; day 44
Experimental: The therapeutic effect of the compounds of the present invention administered in combination with temozolomide (TMZ) on transplanted tumors of human colon carcinoma SW620 or human breast cancer cells MX-1 in nude mice was evaluated by using BALB/cA-nude mice as test animals.
BALB/cA-nude mice, SPF, 16-20 g, female( ), were purchased from SINO-BRITSH SIPPR/BK LAB. ANIMAL LTD., CO. Certificate No.: SCXK(Shanghai) 2008-0016.
4.2 The right rib of the nude mice was subcutaneously inoculated with colon carcinoma cells SW620. After tumors grew to 339±132 mm^3, mice were randomly divided into teams (d0).
The volume of tumors and the weight of the mice were measured and recorded for 2 to 3 times per week.
The volume of tumor (V) was calculated by the follow equation: V=½×a×b^2 wherein: a, b represents length and width respectively. The antitumor rate(%)=(C−T)/C(%) wherein: T, C represents the tumor volume of the experimental group (tested compounds) and blank control group at the end of the experiment respectively. 5. Dosage, Dosage Regimens and the Results

COC(=O)c1nc(C(F)(F)F)n2c1CN(C(=O)c1cc(Cc3n[nH]c(=O)c4ccccc34)ccc1F)CC2 [Example 3, methyl 7-[2-fluoro-5-[(4-oxo-3H-phthalazin-1-yl)methyl]benzoyl]-3-(trifluoromethyl)-6,8-dihydro-5H-imidazo[1,5-a]pyrazine-1-carboxylate]
IC50 (MDA-MB-436 cells): 190 nM

O=C(c1cc(Cc2n[nH]c(=O)c3ccccc23)ccc1F)N1CCn2c(cnc2C(F)(F)F)C1 [Example 5, 4-[[4-fluoro-3-[3-(trifluoromethyl)-6,8-dihydro-5H-imidazo[1,5-a]pyrazine-7-carbonyl]phenyl]methyl]-2H-phthalazin-1-one]
IC50 (MDA-MB-436 cells): 320 nM

O=C(c1cc(Cc2n[nH]c(=O)c3ccccc23)ccc1F)N1CCn2c(nnc2C(F)F)C1 [Example 23, 4-[[3-[3-(difluoromethyl)-6,8-dihydro-5H-[1,2,4]triazolo[4,3-a]pyrazine-7-carbonyl]-4-fluoro-phenyl]methyl]-2H-phthalazin-1-one]
IC50 (MDA-MB-436 cells): 2 nM

CNC(=O)c1nc(C(F)(F)F)n2c1CN(C(=O)c1cc(Cc3n[nH]c(=O)c4ccccc34)ccc1F)CC2 [Example 13, 7-[2-fluoro-5-[(4-oxo-3H-phthalazin-1-yl)methyl]benzoyl]-N-methyl-3-(trifluoromethyl)-6,8-dihydro-5H-imidazo[1,5-a]pyrazine-1-carboxamide]
IC50 (MDA-MB-436 cells): 120 nM | AUC ([1]; intravenous injection): 29400 ± 18500 ng·h/mL | half-life ([1]; intravenous injection): 303 ± 80.4 min | MRT ([1]; intravenous injection): 0.89 ± 0.44 h | AUC ([1]; oral gavage): 4300 ± 3250 ng·h/mL | half-life ([1]; oral gavage): 361 ± 136 min | MRT ([1]; oral gavage): 1.87 ± 0.53 h | Cmax ([1]; oral gavage): 3070 ± 719 ng/mL | bioavailability [1]: 16.8% | Apparent Distribution Volume Vz/F ([1]; intravenous injection): 4.70 ± 2.17 kg⁻¹ | Clearance CL/F ([1]; intravenous injection): 0.72 ± 0.45 1/11/kg | Apparent Distribution Volume Vz/F ([1]; oral gavage): 49.9 ± 52.9 kg⁻¹ | Clearance CL/F ([1]; oral gavage): 4.47 ± 3.78 1/11/kg

O=C(c1cccc(Cc2n[nH]c(=O)c3ccccc23)c1)N1CCn2c(nnc2C(F)(F)F)C1 [Example 15, 4-[[3-[3-(trifluoromethyl)-6,8-dihydro-5H-[1,2,4]triazolo[4,3-a]pyrazine-7-carbonyl]phenyl]methyl]-2H-phthalazin-1-one]
IC50 (MDA-MB-436 cells): 0.9 nM

O=C(c1cc(Cc2n[nH]c(=O)c3ccccc23)ccc1F)N1CCn2ncnc2C1 [Example 16, 4-[[3-(6,8-dihydro-5H-[1,2,4]triazolo[1,5-a]pyrazine-7-carbonyl)-4-fluoro-phenyl]methyl]-2H-phthalazin-1-one]
IC50 (MDA-MB-436 cells): 99 nM

O=C(c1cc(Cc2n[nH]c(=O)c3ccccc23)ccc1F)N1CCn2c(C(F)(F)F)nc(C(=O)N3CCCC3)c2C1 [Example 18, 4-[[4-fluoro-3-[1-(pyrrolidine-1-carbonyl)-3-(trifluoromethyl)-6,8-dihydro-5H-imidazo[1,5-a]pyrazine-7-carbonyl]phenyl]methyl]-2H-phthalazin-1-one]
IC50 (MDA-MB-436 cells): 610 nM

O=C(c1cc(Cc2n[nH]c(=O)c3ccccc23)ccc1F)N1CCn2cnnc2C1 [Example 17, 4-[[3-(6,8-dihydro-5H-[1,2,4]triazolo[4,3-a]pyrazine-7-carbonyl)-4-fluoro-phenyl]methyl]-2H-phthalazin-1-one]
IC50 (MDA-MB-436 cells): 61 nM

O=C(c1cc(Cc2n[nH]c(=O)c3ccccc23)ccc1F)N1CCn2c(nnc2CC(F)(F)F)C1 [Example 26, 4-[[4-fluoro-3-[3-(2,2,2-trifluoroethyl)-6,8-dihydro-5H-[1,2,4]triazolo[4,3-a]pyrazine-7-carbonyl]phenyl]methyl]-2H-phthalazin-1-one]
IC50 (MDA-MB-436 cells): 3 nM

NC(=O)c1nc(C(F)(F)F)n2c1CN(C(=O)c1cc(Cc3n[nH]c(=O)c4ccccc34)ccc1F)CC2 [Example 10, 7-[2-fluoro-5-[(4-oxo-3H-phthalazin-1-yl)methyl]benzoyl]-3-(trifluoromethyl)-6,8-dihydro-5H-imidazo[1,5-a]pyrazine-1-carboxamide]
IC50 (MDA-MB-436 cells): 140 nM

CN(C)C(=O)c1nc(C(F)(F)F)n2c1CN(C(=O)c1cc(Cc3n[nH]c(=O)c4ccccc34)ccc1F)CC2 [Example 22, 7-[2-fluoro-5-[(4-oxo-3H-phthalazin-1-yl)methyl]benzoyl]-N,N-dimethyl-3-(trifluoromethyl)-6,8-dihydro-5H-imidazo[1,5-a]pyrazine-1-carboxamide]
IC50 (MDA-MB-436 cells): 650 nM

CNC(=O)c1nc(C(F)(F)F)n2c1CN(C(=O)c1cccc(Cc3n[nH]c(=O)c4ccccc34)c1)CC2 [Example 21, N-methyl-7-[3-[(4-oxo-3H-phthalazin-1-yl)methyl]benzoyl]-3-(trifluoromethyl)-6,8-dihydro-5H-imidazo[1,5-a]pyrazine-1-carboxamide]
IC50 (MDA-MB-436 cells): 780 nM

O=C(NCC1CC1)c1nc(C(F)(F)F)n2c1CN(C(=O)c1cc(Cc3n[nH]c(=O)c4ccccc34)ccc1F)CC2 [Example 24, N-(cyclopropylmethyl)-7-[2-fluoro-5-[(4-oxo-3H-phthalazin-1-yl)methyl]benzoyl]-3-(trifluoromethyl)-6,8-dihydro-5H-imidazo[1,5-a]pyrazine-1-carboxamide]
IC50 (MDA-MB-436 cells): 72 nM

O=C(c1cc(Cc2n[nH]c(=O)c3ccccc23)ccc1F)N1CCn2c(nnc2C(F)(F)F)C1 [Example 1, 4-[[4-fluoro-3-[3-(trifluoromethyl)-6,8-dihydro-5H-[1,2,4]triazolo[4,3-a]pyrazine-7-carbonyl]phenyl]methyl]-2H-phthalazin-1-one]
IC50 (MDA-MB-436 cells): 0.8 nM | antitumor rate (%) [2]: ++ (“++”: 60%~80%)

CCNC(=O)c1nc(C(F)(F)F)n2c1CN(C(=O)c1cc(Cc3n[nH]c(=O)c4ccccc34)ccc1F)CC2 [Example 7, N-ethyl-7-[2-fluoro-5-[(4-oxo-3H-phthalazin-1-yl)methyl]benzoyl]-3-(trifluoromethyl)-6,8-dihydro-5H-imidazo[1,5-a]pyrazine-1-carboxamide]
IC50 (MDA-MB-436 cells): 71 nM | AUC ([1]; intravenous injection): 34800 ± 15500 ng·h/mL | half-life ([1]; intravenous injection): 56.4 ± 15.6 min | MRT ([1]; intravenous injection): 1.25 ± 0.53 h | AUC ([1]; oral gavage): 4500 ± 6670 ng·h/mL | half-life ([1]; oral gavage): 232 ± 242 min | MRT ([1]; oral gavage): 12.7 ± 15.4 h | Cmax ([1]; oral gavage): 971 ± 1400 ng/mL | bioavailability [1]: 12.9% | Apparent Distribution Volume Vz/F ([1]; intravenous injection): 0.64 ± 0.19 kg⁻¹ | Clearance CL/F ([1]; intravenous injection): 0.52 ± 0.29 1/11/kg | Apparent Distribution Volume Vz/F ([1]; oral gavage): 103 ± 134 kg⁻¹ | Clearance CL/F ([1]; oral gavage): 15.4 ± 12.4 1/11/kg

O=C(c1cc(Cc2n[nH]c(=O)c3ccccc23)ccc1F)N1CCn2cc(C(F)(F)F)nc2C1 [Example 12, 4-[[4-fluoro-3-[2-(trifluoromethyl)-6,8-dihydro-5H-imidazo[1,2-a]pyrazine-7-carbonyl]phenyl]methyl]-2H-phthalazin-1-one]
IC50 (MDA-MB-436 cells): 590 nM
